The IC90 is the point of the concentration-response curve where the effect stands at 90%.

Structures are written as SMILES. Structures can show the parent of a compound that is named as a salt.

The subject of the first assay is Acinetobacter baumannii ATCC 17961. As to the kind of experiment: Antimicrobial susceptibility testing: 90% growth inhibitory concentration (IC90) determination. Format: cell-based. The following applies: ATCC17961, Acinetobacter baumannii ATCC 17961, Iso-Sensitest broth, read-out: ATCC 17961 IC90. A digest of the protocol:
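Growth was followed kinetically by OD600 at 20-min intervals for 16 h at 35±2 °C, with ~5×10^5 CFU/ml in Iso-Sensitest broth. Compounds were tested as twofold dilutions (e.g. 50–0.097 μM final). The concentration giving 90% inhibition of log-phase growth was reported.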
On to `Cn1c(-c2cn(C3CC3)nc2C(F)(F)F)cnc1C(=O)Nc1ccc(C(=O)N2CCC(C3CNC3)CC2)c(Cl)c1` [Example 197, N-(4-(4-(azetidin-3-yl)piperidine-1-carbonyl)-3-chlorophenyl)-5-(1-cyclopropyl-3-(trifluoromethyl)-1H-pyrazol-4-yl)-1-methyl-1H-imidazole-2-carboxamide formate], for which the concentration for an effect of 90% (IC90) amounted to 202 nM.
The same measure, in the same setting: the result for `Cn1c(-c2cn(CC(F)F)nc2C(F)(F)F)cnc1C(=O)Nc1ccc(S(=O)(=O)N2CCN(C(=O)[C@H]3C[C@H](O)CN3)CC2)c(Cl)c1` [Example 198, N-(3-chloro-4-((4-((2R,4S)-4-hydroxypyrrolidine-2-carbonyl)piperazin-1-yl)sulfonyl)phenyl)-5-(1-(2,2-difluoroethyl)-3-(trifluoromethyl)-1H-pyrazol-4-yl)-1-methyl-1H-imidazole-2-carboxamide hydrochloride] reads 207 nM; that for `C=C(C)Cn1cc(-c2cnc(C(=O)Nc3ccc(C(=O)NCCCCN)c(Cl)c3)n2C)c(C(F)(F)F)n1` [Example 199, N-(4-((4-aminobutyl)carbamoyl)-3-chlorophenyl)-1-methyl-5-(1-(2-methylallyl)-3-(trifluoromethyl)-1H-pyrazol-4-yl)-1H-imidazole-2-carboxamide tris(2,2,2-trifluoroacetate)], 213 nM; that for `Cn1c(-c2cn(C3CC3)nc2C(F)(F)F)cnc1C(=O)Nc1ccc(C(=O)N2CCN(C(=O)CN)CC2)c(Cl)c1` [Example 200, N-(3-chloro-4-(4-glycylpiperazine-1-carbonyl)phenyl)-5-(1-cyclopropyl-3-(trifluoromethyl)-1H-pyrazol-4-yl)-1-methyl-1H-imidazole-2-carboxamide hydrochloride], 215 nM.
Same read-out and setting: as for `Cn1c(-c2cn(C3CC3(F)F)nc2C(F)(F)F)cnc1C(=O)Nc1ccc(C(=O)N2CCC(F)(CN)CC2)c(Cl)c1` (stereo not shown) [Example 201, N-(4-(4-(aminomethyl)-4-fluoropiperidine-1-carbonyl)-3-chlorophenyl)-5-(1-(2,2-difluorocyclopropyl)-3-(trifluoromethyl)-1H-pyrazol-4-yl)-1-methyl-1H-imidazole-2-carboxamide formate], the figure is 216 nM; as for `Cn1c(-c2cn(CC3CCC3)nc2C(F)(F)F)cnc1C(=O)Nc1ccc(C(=O)N2CCN(C(=O)CN)CC2)c(Cl)c1` [Example 202, N-(3-chloro-4-(4-glycylpiperazine-1-carbonyl)phenyl)-5-(1-(cyclobutylmethyl)-3-(trifluoromethyl)-1H-pyrazol-4-yl)-1-methyl-1H-imidazole-2-carboxamide hydrochloride], 216 nM.
The same measure, in the same setting: the result for `Cn1c(-c2cn(CC3CC3)nc2C(F)(F)F)cnc1C(=O)Nc1ccc(C(=O)N2CCN(C(=O)N[C@H]3C[C@@H](N)C3)CC2)c(Cl)c1` [Example 203, rac-N-((1s,3s)-3-aminocyclobutyl)-4-(2-chloro-4-(5-(1-(cyclopropylmethyl)-3-(trifluoromethyl)-1H-pyrazol-4-yl)-1-methyl-1H-imidazole-2-carboxamido)benzoyl)piperazine-1-carboxamide] reads 222 nM; that for `Cn1c(-c2cn(C3CC3(F)F)nc2C(F)(F)F)cnc1C(=O)Nc1ccc(N2CCCC2=O)cc1` (stereo not shown) [Example 204, 5-(1-(2,2-difluorocyclopropyl)-3-(trifluoromethyl)-1H-pyrazol-4-yl)-1-methyl-N-(4-(2-oxopyrrolidin-1-yl)phenyl)-1H-imidazole-2-carboxamide], 223 nM.
On to `C=C(C)Cn1cc(-c2cnc(C(=O)Nc3ccc(C(=O)NCCCCCN)c(Cl)c3)n2C)c(C(F)(F)F)n1` [Example 205, N-(4-((5-aminopentyl)carbamoyl)-3-chlorophenyl)-1-methyl-5-(1-(2-methylallyl)-3-(trifluoromethyl)-1H-pyrazol-4-yl)-1H-imidazole-2-carboxamide hydrochloride], for which the IC90 came to 224 nM.
Consider `Cn1c(-c2cn(CC3CC3)nc2C(F)(F)F)cnc1C(=O)Nc1ccc(C(=O)N2CCN(C(=O)[C@@H]3CC[C@@H](N)C3)CC2)c(Cl)c1` [Example 206, N-(4-(4-((1R,3R)-3-aminocyclopentane-1-carbonyl)piperazine-1-carbonyl)-3-chlorophenyl)-5-(1-(cyclopropylmethyl)-3-(trifluoromethyl)-1H-pyrazol-4-yl)-1-methyl-1H-imidazole-2-carboxamide], for which the IC90 turned out to be 224 nM.
The same measure, in the same setting: the result for `Cn1c(-c2cn(C3CC3)nc2C(F)(F)F)cnc1C(=O)Nc1ccc(C(=O)N2CCC(CN)CC2)c(Cl)c1` [Example 207, N-(4-(4-(aminomethyl)piperidine-1-carbonyl)-3-chlorophenyl)-5-(1-cyclopropyl-3-(trifluoromethyl)-1H-pyrazol-4-yl)-1-methyl-1H-imidazole-2-carboxamide formate] reads 226 nM.
The same measure, in the same setting: as for `Cn1c(-c2cn(CC3CC3)nc2C(F)(F)F)cnc1C(=O)Nc1ccc(C(=O)N2CCN(C(=O)C3CNC3)CC2)c(Cl)c1` [Example 208, N-(4-(4-(azetidine-3-carbonyl)piperazine-1-carbonyl)-3-chlorophenyl)-5-(1-(cyclopropylmethyl)-3-(trifluoromethyl)-1H-pyrazol-4-yl)-1-methyl-1H-imidazole-2-carboxamide], the figure is 226 nM; as for `Cn1c(-c2cn(CC3CC3)nc2C(F)(F)F)cnc1C(=O)Nc1ccc(C(=O)N2CCN(C(=O)CN)CC2)c(Cl)c1` [Example 209, N-(3-chloro-4-(4-glycylpiperazine-1-carbonyl)phenyl)-5-(1-(cyclopropylmethyl)-3-(trifluoromethyl)-1H-pyrazol-4-yl)-1-methyl-1H-imidazole-2-carboxamide], 230 nM.
Turning to `Cn1c(-c2cn(CC(F)F)nc2C(F)(F)F)cnc1C(=O)Nc1ccc(S(=O)(=O)N2CCN(C(=O)[C@H]3CC[C@@H](N)C3)CC2)c(Cl)c1` [Example 211, N-(4-((4-((1S,3R)-3-aminocyclopentane-1-carbonyl)piperazin-1-yl)sulfonyl)-3-chlorophenyl)-5-(1-(2,2-difluoroethyl)-3-(trifluoromethyl)-1H-pyrazol-4-yl)-1-methyl-1H-imidazole-2-carboxamide hydrochloride], the IC90 is 231 nM.
`Cn1c(-c2cn(C3CC3(F)F)nc2C(F)(F)F)cnc1C(=O)Nc1ccc(C(=O)N2CC3C(N)C3C2)c(Cl)c1` (stereo not shown) [Example 212, N-(4-(6-amino-3-azabicyclo[3.1.0]hexane-3-carbonyl)-3-chlorophenyl)-5-(1-(2,2-difluorocyclopropyl)-3-(trifluoromethyl)-1H-pyrazol-4-yl)-1-methyl-1H-imidazole-2-carboxamide formate]: the IC90 was 235 nM.
Still for that read-out and setting: as for `Cn1c(-c2cn(CC(F)F)nc2C(F)(F)F)cnc1C(=O)Nc1ccc(C(=O)N2CCN(C(=O)[C@H]3[C@@H]4CNC[C@@H]43)CC2)c(F)c1` [Example 213, rac-N-(4-(4-((1R,5S,6r)-3-azabicyclo[3.1.0]hexane-6-carbonyl)piperazine-1-carbonyl)-3-fluorophenyl)-5-(1-(2,2-difluoroethyl)-3-(trifluoromethyl)-1H-pyrazol-4-yl)-1-methyl-1H-imidazole-2-carboxamide], the figure is 240 nM; as for `Cn1c(-c2cn(C3CC3)nc2C(F)(F)F)cnc1C(=O)Nc1ccc(C(=O)N2CCN(C(=O)NCC3CNC3)CC2)c(Cl)c1` [Example 214, N-(azetidin-3-ylmethyl)-4-(2-chloro-4-(5-(1-cyclopropyl-3-(trifluoromethyl)-1H-pyrazol-4-yl)-1-methyl-1H-imidazole-2-carboxamido)benzoyl)piperazine-1-carboxamide formate], 241 nM.
Same read-out and setting: as for `C=CCn1cc(-c2cnc(C(=O)Nc3ccc(C(=O)NC4C5CN(C(=O)C6CCNCC6)CC54)c(Cl)c3)n2C)c(C(F)(F)F)n1` (stereo not shown) [Example 215, 5-(1-allyl-3-(trifluoromethyl)-1H-pyrazol-4-yl)-N-(3-chloro-4-((3-(piperidine-4-carbonyl)-3-azabicyclo[3.1.0]hexan-6-yl)carbamoyl)phenyl)-1-methyl-1H-imidazole-2-carboxamide formate], the figure is 243 nM.
The same measure, in the same setting: the result for `Cn1c(-c2cn(C3CC3)nc2C(F)(F)F)cnc1C(=O)Nc1ccc(C(=O)N2CCN(C(=O)N3CC(N)C3)CC2)c(Cl)c1` [Example 216, N-(4-(4-(3-aminoazetidine-1-carbonyl)piperazine-1-carbonyl)-3-chlorophenyl)-5-(1-cyclopropyl-3-(trifluoromethyl)-1H-pyrazol-4-yl)-1-methyl-1H-imidazole-2-carboxamide formate] reads 243 nM; that for `Cn1c(-c2cn(C3CC3)nc2C(F)(F)F)cnc1C(=O)Nc1ccc(C(=O)N2CC[C@@H](CN)C2)c(Cl)c1` [Example 217, (S)-N-(4-(3-(aminomethyl)pyrrolidine-1-carbonyl)-3-chlorophenyl)-5-(1-cyclopropyl-3-(trifluoromethyl)-1H-pyrazol-4-yl)-1-methyl-1H-imidazole-2-carboxamide hydrochloride], 244 nM; that for `Cn1c(-c2cn(CC3CC3)nc2C(F)(F)F)cnc1C(=O)Nc1ccc(C(=O)N2CCN(C(=O)N[C@H]3C[C@@H](N)C3)CC2)c(F)c1` [Example 218, N-((1s,3s)-3-aminocyclobutyl)-4-(4-(5-(1-(cyclopropylmethyl)-3-(trifluoromethyl)-1H-pyrazol-4-yl)-1-methyl-1H-imidazole-2-carboxamido)-2-fluorobenzoyl)piperazine-1-carboxamide; hydrochloride], 244 nM.

The assay is the same for the next values; noted with them: Acinetobacter baumannii, ATCC17961, read-out: ATCC 17961 IC90, Acinetobacter baumannii ATCC 17961, Iso-Sensitest broth.
As for `Cn1c(-c2cn(C3CC4(CC4)C3)nc2C(F)(F)F)cnc1C(=O)Nc1ccc(C(=O)N2CCN(C(=O)N[C@H]3C[C@@H](N)C3)CC2)c(Cl)c1` [Example 210, rac-N-((1s,3s)-3-aminocyclobutyl)-4-(2-chloro-4-(1-methyl-5-(1-(spiro[2.3]hexan-5-yl)-3-(trifluoromethyl)-1H-pyrazol-4-yl)-1H-imidazole-2-carboxamido)benzoyl)piperazine-1-carboxamide hydrochloride], the concentration for an effect of 90% (IC90) worked out at 231 nM.
